According to patent publication US10653822B2, “Drug delivery devices and methods of making and using same” (The Administrators of the Tulane Educational Fund, priority 2012, dated 2020):
Read-outs that look alike come from different tables or passages of the source. Values belong to the compound of their own block, whether it stands above or below them.

Columns and labels:
COS-1 cells [1] = test: Cytotoxicity of drug released into culture medium over timed intervals
[2] = cited from earlier work
[3] = In vitro release of 5-FU from double-layered breath figure PLGA films in PBS; format: physicochemical
Procedure: IN VITRO RELEASE CHARACTERISTICS OF DOUBLE-LAYERED 5-FU-PLGA FILM. […] At specific time intervals, a 1 ml aliquot of the solution was withdrawn and 1 ml of fresh PBS was added to the vial to maintain constant volume. The pH of the medium was monitored during the course of the experiment to verify that the solution was buffered adequately during polymer degradation. Each aliquot was centrifuged to remove any possible debris from the degraded polymer components that could interfere with the absorbance readings and drug release was quantified through the absorbance measured at 266 nm. A standard calibration plot of 5-FU absorbance was constructed to correlate absorbance with drug release levels. All experiments were conducted with triplicate polymer samples.

[4] = test system: blood-brain barrier (BBB) in vitro model; conditions: coculture with inserts; cited from earlier work
LN-229 cells [5] = test: Subcellular distribution of FF and FA in LN-229 membrane and cytosolic fractions (HPLC); conditions: per 10^6 LN-229 cells, 25 μM fenofibrate, 24 hrs
Procedure: (§2) Blood plasma, cell culture media, cellular and tissue lysates, were deproteinized by adding 150 μl of acetonitrile to 150 μl of sample, mixed well and centrifuged (15 000 g, 5 min). […] For the subcellular fractionation, subconfluent monolayer cultures were washed in phosphate buffered saline (PBS) twice, then cells were scraped and lysed in 2% sodium dodecyl sulphate (SDS) in PBS. The lysates were sonicated on ice and centrifuged (15 000 g, 5 min). Finally, 150 μl of the supernatant was mixed with the equal volume of acetonitrile, filtered through 0.22 μm centrifuge filter (Sigma) and analyzed by High Performance Liquid Chromatography (HPLC).
(§3) All data were obtained from the Agilent Technologies 1100 apparatus equipped with a line degasser, binary pump (high pressure mixer), autosampler, column thermostat and Diode Array Detector (DAD). The YMCBase, 3 μm 4.6×150 mm analytical column was used and solvent A—50 mM acetic acid in water or solvent B—acetonitrile, with isocratic flow 60%. Flow rate was set to 1 ml/min, column temperature was 20° C., and 5 μl of 0.22 μm filtered sample was injected. DAD wavelength was set to 285 nm.
(§4) Data represent average values from three separate measurements with standard deviation.

LN-229 cells [6] = test system: LN-229 cells
Source text: (§1) HIGH PERFORMANCE LIQUID CHROMATOGRAPHY. […] DAD wavelength was set to 285 nm.
HPLC parameters are given in the materials and methods section and in the legend to FIG. 39. Data represent average values from 2 experiments in triplicate (n=6)±SD (SD values for some points are too small to be visible). […] To test this alternative interpretation, we collected conditioned medium from the LN-229 cells cultured for 72 hrs.

[7] = Tissue distribution of FF and FA after oral fenofibrate in mice (HPLC); format: in vivo; conditions: for concentration at 4 weeks: Balb c/nude, mouse, oral, 50 mg/kg/day
Procedure: ANIMAL STUDIES. […] according to the standard ethically accepted procedure, and the following organs/body fluids were collected: blood, urine, liver, kidneys, spleen, heart, lungs, intact brain and intracranial tumor tissue.
as §1
For body fluids concentrations are calculated per ml of the body fluid, and in solid tissues per mg of the tissue.

[8] = 120 h
[9] = HPLC detection of FF to FA conversion in human blood; format: in vitro ADME; conditions: 50 μM FF in human blood, 4 hours, 37° C.
Source text: as §1

LN-229 cells [10] = conditions: human, 24 h, 25 µM
Procedure: as §2, §3, §4

LN-229 cells [11] = test: Clonogenic assay; format: cell-based, human; conditions: 12 days; drugs at 50 μM or wafer with 1 mg fenofibrate
Procedure: CHLONOGENIC ASSAY. […] Control cells were treated with the vehicle (DMSO). […] All the conditions were tested in duplicate and each experiment was performed at least three times.

[12] = Stability of MMC in PBS and after spin-casting in PLGA-dichloromethane; format: physicochemical
COS-1 cells [13] = test: COS-1 proliferation with MMC-loaded PLGA films, 5-day culture, toluidine blue; format: cell-based; conditions: MMC incorporated into the bulk PLGA film
Procedure: CELL CULTURE AND RELEASE STUDY. For the dose response study, control samples (no drug) and MMC-containing samples were loaded into sterile 12-well plates. […] COS-1 cells (10^4 cells) were added to each well and the cells were incubated at 37° C. in a humidified 5% CO2-95% air atmosphere. The culture medium was replenished on day 3 and day 5 after the cells were plated. After 5 days of culture, the cell accumulation in each culture dish was assessed. The culture medium was removed and the cell layer was gently washed 3 times with 5 mL of phosphate-buffered saline (PBS). […] The amount of dye in each well was measured by the absorbance at 650 nm, which is equivalent to the number of cells, using UV-Visible spectrophotometer (Model UB-1601, Shimadzu scientific instruments Inc, Houston, Tex.).
For the preliminary dose-response study, COS-1 cells (10^4 cells in 1 mL) were added to each well of a 12-well plate. […] After 5 days of culture, the cell accumulation in each culture dish was assessed by a modification of a previously described procedure (Leavesley D I, Ferguson G D, Wayner E A, et al. Requirement of the integrin beta 3 subunit for carcinoma cell spreading or migration on vitronectin and fibrinogen. J Cell Biol. 1992; 117:1101-1107.) Briefly, culture medium was removed and the cell layer was gently washed 2 times with 2 mL of phosphate-buffered saline (PBS). […]

[14] = In vitro release of MMC from surface-loaded PLGA films into PBS; format: physicochemical; conditions: films loaded with 1 and 5 μg MMC, absorbance at 364 nm
Procedure: Aliquots (0.65 mL) of the PBS were removed at specific time intervals after immersion of the polymer samples, and absorbance was measured at 364 nm using a UV spectrophotometer (Shimadzu UV-1700 series). After measurement, the aliquots were returned to the vials to maintain constant volume and sink conditions.

[15] = In vitro release of model drugs (salicylic acid, ibuprofen) from breath figure and non-porous PLGA and PEG/PLGA films in PBS; format: physicochemical; conditions: PBS 37° C.
Procedure: Ibuprofen and Salicylic acid were used as model drugs to characterize the release profiles of breath figure polymer films. The equivalent non-porous smooth films were used as controls. In vitro release studies were carried out by incubating 1.5 cm side square drug incorporated films in 15 ml of PBS medium at 37° C. and stirred gently using a magnetic stirrer. At specific time intervals, 0.650 ml aliquots of the solution was withdrawn and centrifuged to remove any possible debris from the degrading polymer. Then, the aliquot was returned to the vial after measuring the absorbance to quantify drug release. The pH of the medium was monitored during the course of the experiment to verify that the solution is buffered adequately during polymer degradation. Ibuprofen and salicylic acid release were quantified through the absorbance at 221 and 296 nm, respectively. Standard calibration plots of ibuprofen and salicylic acid absorbance were constructed to correlate absorbance with drug release levels. All experiments were conducted in triplicate.
The release profile of breath figure PLGA and PEG/PLGA films was carried out in PBS medium (pH 7.4, 0.1M), incubated at 37° C. A non-porous film with the equivalent amount of drug dispersed was used as control. […] FIG. 14 illustrates the cumulative release of salicylic acid from the PLGA film and PEG/PLGA film, respectively, for a period of 2 days. […]

[16] = blood, read-out: concentration in Blood
[17] = urine, read-out: concentration in Urine
[18] = mice, micronized fenofibrate 50 mg/kg/day oral, n = 4
[19] = mice, micronized fenofibrate 50 mg/kg/day oral, n = 6

SMILES: Cc1ccc(C)c(OCCCC(C)(C)C(=O)O)c1 [Gemfibrozil, gemfibrozil]
inhibition of clonal growth of LN-229 cells (LN-229 cells [11]): not able to reproduce them

SMILES: CO[C@@]12[C@H](COC(N)=O)C3=C(C(=O)C(C)=C(N)C3=O)N1C[C@@H]1N[C@@H]12 [MMC, mitomycin C]
loss of activity in PBS at 23 degrees C. ([12]; 50 day incubation, 23 degrees C.): approximately 15%
loss of activity in PBS at 37 degrees C. ([12]; 50 day incubation, 37 degrees C.): ~50%
activity in PBS at 4 degrees C. ([12]; 50 days, 4 degrees C.): retained its activity
loss of activity after dissolving in PLGA-dichloromethane and spin-casting ([12]; spin-cast PLGA film): 100%
toxic effect of degraded products on COS-1 cells (COS-1 cells [13]): no toxic effect
active drug released from the film [14]: 20-40%

SMILES: Cc1cccc(Nc2cc(Cl)nc(SCC(=O)O)n2)c1C [Wy-14,643]
inhibition of clonal growth of LN-229 cells (LN-229 cells [11]): not able to reproduce them

SMILES: O=C(O)c1ccccc1O [salicylic acid]
water solubility [2]: > 2000 µg/mL

More lines, main results first:

continuous release of drug after the lag phase [3]: 21 days
duration of sharp increase in drug release after the delay [3]: 10 days
lag period after the sharp release phase [3]: 2 to 3 days
delay of the initial release by sealing ([3]; sealed top layer): 3 to 5 days
burst effect in the first 24 hours of incubation ([3]; sealed top layer, 0.1, 0.4, 2 mg 5-FU): no burst effect
SMILES: O=c1[nH]cc(F)c(=O)[nH]1 [5-FU, 5-fluorouracil]
killing efficiency (percent of cells killed vs PLGA film without drug) (COS-1 cells [1]; double-layered film with 0.1 mg 5-FU, samples from >15 days of incubation): about 75%
total incubation with culture medium until maximum cytotoxicity (COS-1 cells [1]; double-layered film with 0.4 mg 5-FU): 4 to 5 days
water solubility (in words) [2]: highly water soluble

amount in cytosolic fraction (LN-229 cells [5]): 0.57 nmol
FA detected after FF incubation in filtered conditioned medium (LN-229 cells [6]): did not detect any traces
concentration at 4 weeks [7, 16]: 3.33 µM
concentration at 4 weeks [7, 17]: 5.34 µM
concentration in Intracranial tumor ([7]; mice with intracranial LN-229, micronized fenofibrate 50 mg/kg/day oral, n = 6): 0 nmol/mg
concentration in Heart [7, 18]: 1.31 ± 1.4 nmol/mg
concentration in Spleen [7, 18]: 1.33 ± 1.1 nmol/mg
concentration in Brain ([7]; mice, micronized fenofibrate 50 mg/kg/day oral, n = 5): 0.06 ± 0.1 nmol/mg
concentration in Kidneys [7, 19]: 1.5 ± 0.8 nmol/mg
concentration in Liver [7, 19]: 11.35 ± 3.9 nmol/mg
concentration in Lungs [7, 19]: 0.36 ± 04 nmol/mg
SMILES: CC(C)(Oc1ccc(C(=O)c2ccc(Cl)cc2)cc1)C(=O)O [FA, fenofibric acid]
BBB permeability coefficient [4]: 11.3 ×10⁻⁶ cm/s

stability in culture medium [8]: at least 120 h
time of maximal intracellular concentration (LN-229 cells [6]; human, 50 µM): 24 h
decrease of FF peak in human blood [9]: about 5 fold
amount in cytosolic fraction (LN-229 cells [10]): 2.40 nmol
concentration at 4 weeks [7, 16]: 0 µM
concentration at 4 weeks [7, 17]: 0 µM
SMILES: CC(C)OC(=O)C(C)(C)Oc1ccc(C(=O)c2ccc(Cl)cc2)cc1 [FF, fenofibrate]

duration of release from films [15]: at least 14 days
SMILES: CC(C)Cc1ccc(C(C)C(=O)O)cc1 (stereo not shown) [ibuprofen]
water solubility [2]: < 500 µg/mL
